pIC50: −log10 of the molar value. Counter-ions that a name gives are not always drawn.

For the first experiment, the target named is T1, human neutrophil elastase (Homo sapiens, UniProt P08246).
T1 sequence (P08246 30-267): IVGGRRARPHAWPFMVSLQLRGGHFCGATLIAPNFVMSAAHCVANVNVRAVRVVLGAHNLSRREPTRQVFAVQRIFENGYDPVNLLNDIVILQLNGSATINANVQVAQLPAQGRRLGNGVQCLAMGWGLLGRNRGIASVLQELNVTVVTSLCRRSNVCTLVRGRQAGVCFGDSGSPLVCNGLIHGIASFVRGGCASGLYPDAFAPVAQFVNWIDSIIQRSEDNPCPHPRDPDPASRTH
As to the kind of experiment: In vitro assay of human neutrophil elastase (HNE). The format is biochemical. The note with it: 118 nM purified human neutrophil elastase, pH 8.6, 15 min incubation at 30° C., MeO-succinyl-alanyl-alanyl-prolyl-valyl-p-nitroanilide substrate; read-out: HNE IC50. The procedure:
In Vitro Assays of Human Neutrophil Elastase
118 nM purified human neutrophil elastase
Suitable concentrations of compound under test diluted with water from a 10 mM stock solution in dimethylsulphoxide. Values above are final concentrations after the addition of substrate solution (see below).
The mixture above is incubated for fifteen minutes at 30° C. at which time the remaining elastase activity is measured for 10 minutes in a BioTek 340i plate-reader, after the addition of 0.6 mM MeO-succinyl-alanyl-alanyl-prolyl-valyl-p-nitroanilide. The rate of increase in absorbance at 405 nm is proportional to elastase activity. Enzyme activity is plotted against concentration of inhibitor and an IC50 determined using curve fitting software.
1. The compounds were tested in the in vitro elastase test described earlier in the description.
Turning to `CCC[C@H]1C(=O)N(S(=O)(=O)c2cccc3cccnc23)[C@H]2CCN(S(C)(=O)=O)[C@H]12` (relative stereo) [Example 52, rel-(3R,3aR,6aS)-4-Methanesulfonyl-3-propyl-1-(quinoline-8-sulfonyl)-hexahydro-pyrrolo[3,2-b]pyrrol-2-one], the pIC50 was 6.65. On the same count and under the same terms, the value for `CCC[C@H]1C(=O)N(S(C)(=O)=O)[C@H]2CCN(C(=O)CCCCCCCCCN3CCOCC3)[C@H]12` (relative stereo) [Example 64, rel-(3R,3aR,6aS)-1-Methanesulfonyl-4-(10-morpholin-4-yl-decanoyl)-3-propyl-hexahydro-pyrrolo[3,2-b]pyrrol-2-one DL-tartrate] was 7.59; that for `CCC[C@H]1C(=O)N(S(C)(=O)=O)[C@H]2CCN(C(=O)CCCCCCCCCN(CC)CC)[C@H]12` (relative stereo) [Example 65, rel-(3R,3aR,6aS)-4-(10-Diethylamino-decanoyl)-1-methanesulfonyl-3-propyl-hexahydro-pyrrolo[3,2-b]pyrrol-2-one DL-tartrate] was 7.18; that for `CCC[C@H]1C(=O)N(S(C)(=O)=O)[C@H]2CCN(C(=O)CCCCCCCCCN3CCCCCC3)[C@H]12` (relative stereo) [Example 66, rel-(3R,3aR,6aS)-4-(10-Azepin-1-yl-decanoyl)-1-methanesulfonyl-3-propyl-hexahydro-pyrrolo[3,2-b]pyrrol-2-one hydrochloride] was 7.47.

As for `CCC[C@H]1C(=O)N(S(C)(=O)=O)[C@H]2CCN(C(=O)CCCCCCCCCN(C)C)[C@H]12` (relative stereo) [Example 67, rel-(3R,3aR,6aS)-4-(10-Dimethylamino-decanoyl)-1-methanesulfonyl-3-propyl-hexahydro-pyrrolo[3,2-b]pyrrol-2-one DL-tartrate], the pIC50 is 7.37. The same measure, in the same setting: the value for `CCC[C@H]1C(=O)N(S(C)(=O)=O)[C@H]2CCN(C(=O)CCCCCCCCCN(C)c3ccccc3)[C@H]12` (relative stereo) [Example 68, rel-(3R,3aR,6aS)-1-Methanesulfonyl-4-[10-methyl-phenyl-amino)decanoyl]-3-propyl-hexahydro-pyrrolo[3,2-b]pyrrol-2-one hydrochloride] was 7.14. The same measure, in the same setting: the value for `CCC[C@H]1C(=O)N(S(C)(=O)=O)[C@H]2CCN(C(=O)CCCCCCCCCN3CCN(C)CC3)[C@H]12` (relative stereo) [Example 69, rel-(3R,3aR,6aS)-1-Methanesulfonyl-4-[10-(4-methyl-piperazin-1-yl)-decanoyl]-3-propyl-hexahydro-pyrrolo[3,2-b]pyrrol-2-one dihydrochloride] was 7.10.

In the case of `CCC[C@H]1C(=O)N(S(C)(=O)=O)[C@H]2CCN(C(=O)CCCCCCCCCN3CCCCC3)[C@H]12` (relative stereo) [Example 70, rel-(3R,3aR,6aS)-1-Methanesulfonyl-4-(10-piperidin-1-yl-decanoyl)-3-propyl-hexahydro-pyrrolo[3,2-b]pyrrol-2-one DL-tartrate], the pIC50 was 7.39. Consider `CCC[C@H]1C(=O)N(S(C)(=O)=O)[C@H]2CCN(C(=O)CCCCCCCCCN3CCCC3)[C@H]12` (relative stereo) [Example 71, rel-(3R,3aR,6aS)-1-Methanesulfonyl-3-propyl-4-(10-pyrrolidin-1-yl-decanoyl)-hexahydro-pyrrolo[3,2-b]pyrrol-2-one hydrochloride], for which the negative logarithm of the IC50 (pIC50) is 7.46. On the same count and under the same terms, the value for `CCC[C@H]1C(=O)N(S(C)(=O)=O)[C@H]2CCN(C(=O)CCCCCCCCCN3CCC3)[C@H]12` (relative stereo) [Example 72, rel-(3R,3aR,6aS)-4-(10-Azetidin-1-yl-decanoyl)-1-methanesulfonyl-3-propyl-hexahydro-pyrrolo[3,2-b]pyrrol-2-one DL-tartrate] was 7.43; that for `CCC[C@H]1C(=O)N(S(C)(=O)=O)[C@H]2CCN(C(=O)CCCCCN3CCCC3)[C@H]12` (relative stereo) [Example 73, rel-(3R,3aR,6aS)-1-Methanesulfonyl-3-propyl-4-(6-pyrrolidin-1-yl-hexanoyl)-hexahydro-pyrrolo[3,2-b]pyrrol-2-one hydrochloride] was 7.13; that for `CCC[C@H]1C(=O)N(S(C)(=O)=O)[C@H]2CCN(C(=O)CCCCCN3CCCCC3)[C@H]12` (relative stereo) [Example 74, rel-(3R,3aR,6aS)-1-Methanesulfonyl-4-(6-piperidin-1-yl-hexanoyl)-3-propyl-hexahydro-pyrrolo[3,2-b]pyrrol-2-one hydrochloride] was 7.26. On to `CCC[C@H]1C(=O)N(S(C)(=O)=O)[C@H]2CCN(C(=O)CCCCCN(CC)CC)[C@H]12` (relative stereo) [Example 76, rel-(3R,3aR,6aS)-4-(6-Diethylamino-hexanoyl)-1-methanesulfonyl-3-propyl-hexahydro-pyrrolo[3,2-b]pyrrol-2-one DL-tartrate], for which the pIC50 was 6.75. On the same count and under the same terms, the value for `CCC[C@H]1C(=O)N(S(C)(=O)=O)[C@H]2CCN(C(=O)CCCCCN(C)C)[C@H]12` (relative stereo) [Example 77, rel-(3R,3aR,6aS)-4-(6-Dimethylamino-hexanoyl)-1-methanesulfonyl-3-propyl-hexahydro-pyrrolo[3,2-b]pyrrol-2-one DL-tartrate] was 6.87; that for `CCC[C@H]1C(=O)N(S(C)(=O)=O)[C@H]2CCN(C(=O)CCCCCN3CCC3)[C@H]12` (relative stereo) [Example 78, rel-(3R,3aR,6aS)-4-(6-Azetidin-1-yl-hexanoyl)-1-methanesulfonyl-3-propyl-hexahydro-pyrrolo[3,2-b]pyrrol-2-one DL-tartrate] was 7.06. Still for that read-out and setting: as for `CCC[C@H]1C(=O)N(S(C)(=O)=O)[C@H]2CCN(C(=O)CCCCCN3CCN(C)CC3)[C@H]12` (relative stereo) [Example 79, rel-(3R,3aR,6aS)-1-Methanesulfonyl-4-[6-(4-methyl-piperazin-1-yl)-hexanoyl]-3-propyl-hexahydro-pyrrolo[3,2-b]pyrrol-2-one dihydrochloride], the figure is 7.30. With `CCC[C@H]1C(=O)N(S(C)(=O)=O)[C@H]2CCN(C(=O)CCCCCN3CCCN(C)CC3)[C@H]12` (relative stereo) [Example 80, rel-(3R,3aR,6aS)-1-Methanesulfonyl-4-[6-(4-methyl-[1,4]diazepin-1-yl)-hexanoyl]-3-propyl-hexahydro-pyrrolo[3,2-b]pyrrol-2-one hydrochloride], the pIC50 was 7.21. Still for that read-out and setting: as for `CCC[C@H]1C(=O)N(S(C)(=O)=O)[C@H]2CCN(C(=O)CCCCCN(C)c3ccccc3)[C@H]12` (relative stereo) [Example 81, rel-(3R,3aR,6aS)-1-Methanesulfonyl-4-[6-(methyl-phenyl-amino)-hexanoyl]-3-propyl-hexahydro-pyrrolo[3,2-b]pyrrol-2-one hydrochloride], the figure is 7.17.

Still in this experiment, the particulars now being: HNE IC50, 118 nM purified human neutrophil elastase, pH 8.6, 15 min incubation at 30° C., MeO-succinyl-alanyl-alanyl-prolyl-valyl-p-nitroanilide substrate.
For the compound `CCC[C@H]1C(=O)N(S(C)(=O)=O)[C@H]2CCN(C(=O)CCCCCN3C4CCCC3CC4)[C@H]12` (relative stereo) [Example 75, rel-(3R,3aR,6aS)-4-(6-8-Aza-bicyclo[3.2. 1]oct-8-yl-hexanoyl)-1-methanesulfonyl-3-propyl-hexahydro-pyrrolo[3,2-b]pyrrol-2-one hydrochloride], the pIC50 is 7.48.

The pIC50 is the negative decadic logarithm of the IC50, by convention in mol/L.

Values taken from patent US6215002A, “Pyrrolopyrrolone derivatives as inhibitors of neutrophil elastase” (priority 1996, dated 2001).
